According to patent US8637499B2, “Benzoxazepines as inhibitors of PI3K/mTOR and methods of their use and manufacture” (Exelixis, Inc., priority 2009, dated 2014):

Assays:
[1] = target: PI3Kα (Homo sapiens, UniProt P42336); test: PI3K Biochemical Assays (ATP consumption, luciferase-luciferin chemiluminescence); details: PI3Kα 1.5 nM, ATP 1 μM, PIP2 10 μM; percent of ATP consumed
Protocol: PI3Kα activity is measured as the percent of ATP consumed following the kinase reaction using luciferase-luciferin-coupled chemiluminescence. Reactions were conducted in 384-well white, medium binding microtiter plates (Greiner). Kinase reactions were initiated by combining test compounds, ATP, substrate (PIP2), and kinase in a 20 μL volume in a buffer solution. The standard PI3Kalpha assay buffer is composed 50 mM Tris, pH 7.5, 1 mM EGTA, 10 mM MgCl2, 1 mM DTT and 0.03% CHAPS. The standard assay concentrations for enzyme, ATP, and substrate are 1.5 nM, 1 μM, and 10 μM, respectively. The reaction mixture was incubated at ambient temperature for approximately 2 h. Following the kinase reaction, a 10 μL aliquot of luciferase-luciferin mix (Promega Kinase-Glo) was added and the chemiluminescence signal measured using a Victor2 plate reader (Perkin Elmer). Total ATP consumption was limited to 40-60% and IC50 values of control compounds correlate well with literature references. Substituting PI3Kα with PI3KIβ, […], or […], the inhibitory activity of the compounds for the other isoforms of I3K were measured.

[2] = target: mTORC1 (mTOR/GbL/Raptor) (Homo sapiens, UniProt P42345); test: mTOR/GbL/Raptor (mTORC1) ELISA Assay; assay type: biochemical; details: 0.2 nM mTORC1, 10 μM ATP, 50 nM NHis-tagged 4E-BP1; phosphorylation of 4E-BP1; read-out: IC50
Protocol: mTOR/GbL/Raptor (mTORC1) ELISA Assay
The measurement of mTORC1 enzyme activity was performed in an ELISA assay format following the phosphorylation of 4E-BP1 protein. All experiments were performed in the 384-well format. Generally, 0.5 μL DMSO containing varying concentrations of the test compound was mixed with 15 μL enzyme solution. Kinase reactions were initiated with the addition of 15 μL of substrates-containing solution. The assay conditions were as follows; 0.2 nM mTORC1, 10 μM ATP and 50 nM NHis-tagged 4E-BP1 in 20 mM Hepes, pH 7.2, 1 mM DTT, 50 mM NaCl, 10 mM MnCl2, 0.02 mg/mL BSA, 0.01% CHAPS, 50 mM β-glycerophosphate. Following an incubation of 120 minutes at ambient temperature, 20 μL of the reaction volume was transferred to a Ni-Chelate-coated 384-well plate. The binding step of the 4E-BP1 protein proceeded for 60 minutes, followed by washing 4 times each with 50 μL of Tris-buffered saline solution (TBS). Anti-phospho-4E-BP1 rabbit-IgG (20 μL, 1:5000) in 5% BSA-TBST (0.2% Tween-20 in TBS) was added and further incubated for 60 minutes. Incubation with a secondary HRP-tagged anti-IgG was similarly performed after washing off the primary antibody (4 washes of 50 μL). Following the final wash step with TBST, 20 μL of SuperSignal ELISA Femto (Pierce Biotechnology) was added and the luminescence measured using an EnVision plate reader.

PI3Kα, sequence (P42336 whole entry): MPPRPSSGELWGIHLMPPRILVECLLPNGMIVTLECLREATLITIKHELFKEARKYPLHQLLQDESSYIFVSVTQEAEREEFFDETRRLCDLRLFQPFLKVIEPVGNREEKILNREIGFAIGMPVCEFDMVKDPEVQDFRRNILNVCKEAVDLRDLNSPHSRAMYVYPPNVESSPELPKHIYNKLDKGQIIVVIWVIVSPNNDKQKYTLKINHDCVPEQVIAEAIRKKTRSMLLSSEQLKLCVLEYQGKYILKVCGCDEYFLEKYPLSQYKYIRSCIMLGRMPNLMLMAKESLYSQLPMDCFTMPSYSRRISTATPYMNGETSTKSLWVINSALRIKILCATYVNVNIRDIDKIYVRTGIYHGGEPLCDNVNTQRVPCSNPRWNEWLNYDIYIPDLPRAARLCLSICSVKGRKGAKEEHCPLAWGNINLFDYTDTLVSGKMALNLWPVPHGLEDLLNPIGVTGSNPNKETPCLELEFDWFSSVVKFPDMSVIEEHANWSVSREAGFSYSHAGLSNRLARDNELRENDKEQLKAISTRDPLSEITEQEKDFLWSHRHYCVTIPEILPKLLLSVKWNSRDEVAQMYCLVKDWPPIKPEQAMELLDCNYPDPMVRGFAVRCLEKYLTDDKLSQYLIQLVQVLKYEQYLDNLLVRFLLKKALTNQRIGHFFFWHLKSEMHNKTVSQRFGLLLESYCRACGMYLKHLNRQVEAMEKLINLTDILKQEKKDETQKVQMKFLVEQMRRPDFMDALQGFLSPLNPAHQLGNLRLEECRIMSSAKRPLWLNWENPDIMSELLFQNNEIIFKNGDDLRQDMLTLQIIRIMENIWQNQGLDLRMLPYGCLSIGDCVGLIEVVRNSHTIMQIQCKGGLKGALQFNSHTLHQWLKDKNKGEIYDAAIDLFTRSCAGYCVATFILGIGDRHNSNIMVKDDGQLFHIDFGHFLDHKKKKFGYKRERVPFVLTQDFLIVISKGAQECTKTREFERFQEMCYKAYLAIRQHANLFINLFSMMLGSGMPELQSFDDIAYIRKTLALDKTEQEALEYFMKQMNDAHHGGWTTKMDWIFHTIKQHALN
PI3Kα, sequence (P27986 whole entry partner): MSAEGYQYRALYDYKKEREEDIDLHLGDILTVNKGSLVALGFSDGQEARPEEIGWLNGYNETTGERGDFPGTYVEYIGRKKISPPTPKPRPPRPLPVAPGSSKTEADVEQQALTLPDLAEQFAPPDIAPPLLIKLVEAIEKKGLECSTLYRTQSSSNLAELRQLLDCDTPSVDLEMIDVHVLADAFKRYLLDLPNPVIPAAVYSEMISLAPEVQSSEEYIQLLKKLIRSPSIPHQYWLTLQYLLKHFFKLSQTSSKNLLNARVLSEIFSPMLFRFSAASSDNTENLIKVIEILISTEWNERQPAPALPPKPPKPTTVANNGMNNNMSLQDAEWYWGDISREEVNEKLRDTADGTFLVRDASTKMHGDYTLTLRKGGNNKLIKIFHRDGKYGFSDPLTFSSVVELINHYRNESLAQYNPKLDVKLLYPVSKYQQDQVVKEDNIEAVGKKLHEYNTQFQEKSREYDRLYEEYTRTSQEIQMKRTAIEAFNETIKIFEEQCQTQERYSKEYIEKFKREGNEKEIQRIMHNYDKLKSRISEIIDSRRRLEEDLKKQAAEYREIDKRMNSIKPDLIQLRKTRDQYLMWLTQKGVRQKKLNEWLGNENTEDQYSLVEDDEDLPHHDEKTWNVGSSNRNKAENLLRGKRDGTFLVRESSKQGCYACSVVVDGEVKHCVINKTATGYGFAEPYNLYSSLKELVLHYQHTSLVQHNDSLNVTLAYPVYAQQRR

Compound | IC50 [1] | IC50 [2]
Cc1nc2ccc(-c3ccc4c(c3)CN(C(=O)N3CCC(C)(F)CC3)CCO4)cc2[nH]1 [Compound 83, 4-[(4-fluoro-4-methylpiperidin-1-yl)carbonyl]-7-(2-methyl-1H-benzimidazol-6-yl)-2,3,4,5-tetrahydro-1,4-benzoxazepine] | 1000 to 3000 nM | 50 to 250 nM
Nc1nc2ncc(-c3ccc4c(c3)CN(C(=O)N3CCC(CCF)CC3)CCO4)cc2[nH]1 [Compound 44, 6-(4-{[4-(2-fluoroethyl)piperidin-1-yl]carbonyl}-2,3,4,5-tetrahydro-1,4-benzoxazepin-7-yl)-1H-imidazo[4,5-b]pyridin-2-amine] | ≤ 75 nM | ≤ 50 nM
NC(=O)C1CCN(C(=O)N2CCOc3ccc(-c4cnc5nc(N)[nH]c5c4)cc3C2)CC1 [Compound 47, 1-{[7-(2-amino-1H-imidazo[4,5-b]pyridin-6-yl)-2,3-dihydro-1,4-benzoxazepin-4(5H)-yl]carbonyl}piperidine-4-carboxamide] | ≤ 75 nM | ≤ 50 nM
O=C(N1CCC(CF)CC1)N1CCOc2ccc(-c3ccc(-c4ncc[nH]4)cc3)cc2C1 [Compound 58, 4-{[4-(fluoromethyl)piperidin-1-yl]carbonyl}-7-[4-(1H-imidazol-2-yl)phenyl]-2,3,4,5-tetrahydro-1,4-benzoxazepine] | 75 to 200 nM | ≤ 50 nM
Cc1nc2ccc(-c3ccc4c(c3)CN(C(=O)N3CC5CCC3C5)CCO4)cc2[nH]1 (stereo not shown) [Compound 107, 4-(2-azabicyclo[2.2.1]hept-2-ylcarbonyl)-7-(2-methyl-1H-benzimidazol-6-yl)-2,3,4,5-tetrahydro-1,4-benzoxazepine] | 500 to 1000 nM | 250 to 700 nM
Cc1nc2ccc(-c3ccc4c(c3)CN(C(=O)N3CC5CCCC5C3)CCO4)cc2[nH]1 (stereo not shown) [Compound 84, 4-(hexahydrocyclopenta[c]pyrrol-2(1H)-ylcarbonyl)-7-(2-methyl-1H-benzimidazol-6-yl)-2,3,4,5-tetrahydro-1,4-benzoxazepine] | 200 to 500 nM | 50 to 250 nM
Cc1nc2ccc(-c3ccc4c(c3)CN(C(=O)N3CCCC(C)C3)CCO4)cc2[nH]1 (stereo not shown) [Compound 88, 7-(2-methyl-1H-benzimidazol-6-yl)-4-[(3-methylpiperidin-1-yl)carbonyl]-2,3,4,5-tetrahydro-1,4-benzoxazepine] | 200 to 500 nM | 250 to 700 nM
Cc1nc2ccc(-c3ccc4c(c3)CN(C(=O)N3CCC(=C(F)F)CC3)CCO4)cc2[nH]1 [Compound 137, 4-{[4-(difluoromethylidene)piperidin-1-yl]carbonyl}-7-(2-methyl-1H-benzimidazol-6-yl)-2,3,4,5-tetrahydro-1,4-benzoxazepine] | 200 to 500 nM | 250 to 700 nM
Cc1nc2ccc(-c3ccc4c(c3)CN(C(=O)N3CCN(c5cccc(Cl)c5)CC3)CCO4)cc2[nH]1 [Compound 176, 4-{[4-(3-chlorophenyl)piperazin-1-yl]carbonyl}-7-(2-methyl-1H-benzimidazol-6-yl)-2,3,4,5-tetrahydro-1,4-benzoxazepine] | 1000 to 3000 nM | 50 to 250 nM
CCNc1nc2ccc(-c3ccc4c(c3)CN(C(=O)N3CCC(CF)CC3)CCO4)cc2[nH]1 [Compound 29, N-ethyl-6-(4-{[4-(fluoromethyl)piperidin-1-yl]carbonyl}-2,3,4,5-tetrahydro-1,4-benzoxazepin-7-yl)-1H-benzimidazol-2-amine] | 75 to 200 nM | ≤ 50 nM
Cc1nc2ccc(-c3ccc4c(c3)CN(C(=O)N3CC[C@@H]5CCCC[C@H]5C3)CCO4)cc2[nH]1 (racemic) [Compound 80, (±)-7-(2-methyl-1H-benzimidazol-6-yl)-4-[(4aS,8aR)-octahydroisoquinolin-2(1H)-ylcarbonyl]-2,3,4,5-tetrahydro-1,4-benzoxazepine] | 1000 to 3000 nM | 250 to 700 nM
Cc1nc2ccc(-c3ccc4c(c3)CN(C(=O)N3CCC5CCCCC5C3)CCO4)cc2[nH]1 (stereo not shown) [Compound 156, 7-(2-methyl-1H-benzimidazol-6-yl)-4-(octahydroisoquinolin-2(1H)-ylcarbonyl)-2,3,4,5-tetrahydro-1,4-benzoxazepine] | 200 to 500 nM | 50 to 250 nM
O=C(N1CCC(C(F)F)CC1)N1CCOc2ccc(-c3ccc(-c4ncc[nH]4)cc3)cc2C1 [Compound 62, 4-{[4-(difluoromethyl)piperidin-1-yl]carbonyl}-7-[4-(1H-imidazol-2-yl)phenyl]-2,3,4,5-tetrahydro-1,4-benzoxazepine] | 75 to 200 nM | ≤ 50 nM

Further lines, results first:

IC50 [1] | IC50 [2] | Compound
1000 to 3000 nM | 250 to 700 nM | Cc1nc2ccc(-c3ccc4c(c3)CN(C(=O)N3CC[C@H](CF)C[C@@H]3c3ccc(F)c(F)c3)CCO4)cc2[nH]1 (racemic) [Compound 147, (±)-4-{[(2R,4S)-2-(3,4-difluorophenyl)-4-(fluoromethyl)piperidin-1-yl]carbonyl}-7-(2-methyl-1H-benzimidazol-6-yl)-2,3,4,5-tetrahydro-1,4-benzoxazepine]
75 to 200 nM | 700 to 2600 nM | COC(=O)Nc1nc2cc(-c3ccc4c(c3)CN(C(=O)N3CC[C@H](O)C[C@@H]3c3ccc(F)cc3)CCO4)ccc2[nH]1 (racemic) [Compound 17, (±)-methyl [5-(4-{[(2R,4S)-2-(4-fluorophenyl)-4-hydroxypiperidin-1-yl]carbonyl}-2,3,4,5-tetrahydro-1,4-benzoxazepin-7-yl)-1H-benzimidazol-2-yl]carbamate]
≤ 75 nM | ≤ 50 nM | Cc1nc2ccc(-c3ccc4c(c3)CN(C(=O)N3CCCCC3c3ccc(F)cc3)CCO4)cc2[nH]1 (stereo not shown) [Compound 73, 4-{[2-(4-fluorophenyl)piperidin-1-yl]carbonyl}-7-(2-methyl-1H-benzimidazol-6-yl)-2,3,4,5-tetrahydro-1,4-benzoxazepine]
1000 to 3000 nM | 50 to 250 nM | Cc1nc2ccc(-c3ccc4c(c3)CN(C(=O)N3CCC(Oc5ccc(Cl)cc5)CC3)CCO4)cc2[nH]1 [Compound 70, 4-({4-[(4-chlorophenyl)oxy]piperidin-1-yl}carbonyl)-7-(2-methyl-1H-benzimidazol-6-yl)-2,3,4,5-tetrahydro-1,4-benzoxazepine]
500 to 1000 nM | 50 to 250 nM | Cc1nc2ccc(-c3ccc4c(c3)CN(C(=O)N3CCc5ccccc5C3)CCO4)cc2[nH]1 [Compound 113, 4-(3,4-dihydroisoquinolin-2(1H)-ylcarbonyl)-7-(2-methyl-1H-benzimidazol-6-yl)-2,3,4,5-tetrahydro-1,4-benzoxazepine]
200 to 500 nM | ≤ 50 nM | Cc1nc2ccc(-c3ccc4c(c3)CN(C(=O)N3CCCCC3c3ccc(C(F)(F)F)cc3)CCO4)cc2[nH]1 (stereo not shown) [Compound 120, 7-(2-methyl-1H-benzimidazol-6-yl)-4-({2-[4-(trifluoromethyl)phenyl]piperidin-1-yl}carbonyl)-2,3,4,5-tetrahydro-1,4-benzoxazepine]
≤ 75 nM | ≤ 50 nM | O=C1CCN(C(=O)N2CCOc3ccc(-c4ccc(-c5ncc[nH]5)cc4)cc3C2)C(c2cccc(F)c2)C1 (stereo not shown) [Compound 55, 2-(3-fluorophenyl)-1-({7-[4-(1H-imidazol-2-yl)phenyl]-2,3-dihydro-1,4-benzoxazepin-4(5H)-yl}carbonyl)piperidin-4-one]
75 to 200 nM | ≤ 50 nM | Cc1nc2ccc(-c3ccc4c(c3)CN(C(=O)N3CCC(=O)CC3c3cccc(F)c3)CCO4)cc2[nH]1 (stereo not shown) [Compound 125, 2-(3-fluorophenyl)-1-{[7-(2-methyl-1H-benzimidazol-6-yl)-2,3-dihydro-1,4-benzoxazepin-4(5H)-yl]carbonyl}piperidin-4-one]
200 to 500 nM | 250 to 700 nM | Cc1nc2ccc(-c3ccc4c(c3)CN(C(=O)N3CCCCC3c3cccc(C(F)(F)F)c3)CCO4)cc2[nH]1 (stereo not shown) [Compound 127, 7-(2-methyl-1H-benzimidazol-6-yl)-4-({2-[3-(trifluoromethyl)phenyl]piperidin-1-yl}carbonyl)-2,3,4,5-tetrahydro-1,4-benzoxazepine]
500 to 1000 nM | 50 to 250 nM | Cc1nc2ccc(-c3ccc4c(c3)CN(C(=O)N3CC[C@H](O)C[C@@H]3c3ccc(F)cc3)CCO4)cc2[nH]1 (racemic) [Compound 136, (±)-(2R,4S)-2-(4-fluorophenyl)-1-{[7-(2-methyl-1H-benzimidazol-6-yl)-2,3-dihydro-1,4-benzoxazepin-4(5H)-yl]carbonyl}piperidin-4-ol]
